The subject of series [1] is Skin fibroblasts (BJ). Description: Resazurin assay, 3-day treatment. It is filed as cell-based, human. To be noted: BJ. The procedure:
Skin fibroblasts (BJ) were obtained from the American Type Culture Collection (ATCC, Manassas, VA), while human keratinocytes (HaCaT) were sourced from the German Cancer Research Center in Heidelberg, Germany. Cells were cultured in a standard DMEM medium from Sigma-Aldrich, supplemented with 10% fetal bovine serum, 2 mM glutamine, 100 U/mL penicillin, and 100 μg/mL streptomycin. Cultures were maintained under standard conditions (37 °C, 5% CO2, humidified atmosphere) and subcultured two to three times per week. We assessed the effect of 3-day compound treatments on cell viability using a resazurin reduction assay measuring mitochondrial activity. Approximately 5,000 cells in 80 μL of culture medium were seeded into the wells of a 96-well plate. Twenty-four hours later, 20 μL of 5-fold concentrated test compound solutions was added and tested across three concentrations prepared through 2-fold serial dilutions. The highest final concentration was 40 μM. After 72 h, we added an 11-fold concentrated resazurin solution to the wells, achieving a final concentration of 0.0125 μM. Fluorescence (ex = 570 nm, em = 610 nm) was measured after 3 h of incubation. […]

In series [2] the test system is human keratinocytes (HaCaT). Description: Resazurin assay, 3-day treatment. It counts as cell-based. The procedure:
Skin fibroblasts (BJ) were obtained from the American Type Culture Collection (ATCC, Manassas, VA), while human keratinocytes (HaCaT) were sourced from the German Cancer Research Center in Heidelberg, Germany. Cells were cultured in a standard DMEM medium from Sigma-Aldrich, supplemented with 10% fetal bovine serum, 2 mM glutamine, 100 U/mL penicillin, and 100 μg/mL streptomycin. Cultures were maintained under standard conditions (37 °C, 5% CO2, humidified atmosphere) and subcultured two to three times per week. We assessed the effect of 3-day compound treatments on cell viability using a resazurin reduction assay measuring mitochondrial activity. Approximately 5,000 cells in 80 μL of culture medium were seeded into the wells of a 96-well plate. Twenty-four hours later, 20 μL of 5-fold concentrated test compound solutions was added and tested across three concentrations prepared through 2-fold serial dilutions. The highest final concentration was 40 μM. After 72 h, we added an 11-fold concentrated resazurin solution to the wells, achieving a final concentration of 0.0125 μM. Fluorescence (ex = 570 nm, em = 610 nm) was measured after 3 h of incubation.
The disubstituted derivatives i-25 and i-27 were the most toxic in the set, causing around a 50% decrease in viability of HaCaT cells at 40 μM.

Series [3] concerns age unsynchronized Ditylenchus destructor. Description: Motility on WMicrotracker ONE. It counts as in vivo. The procedure: Populations of D. destructor, kindly provided by Central Institute for Supervising and Testing in Agriculture, the Ministry of Agriculture of the Czech Republic, were maintained according to the protocol previously described here.
(§1) The effect of compounds on motility of H. contortus, D. destructor, and H. schachtii was evaluated using the WMicrotracker ONE platform according to previously published protocols. ,
(§2) The instrument evaluates the activity of small animals by counting how many times infrared light microbeams passing through the wells of a microtiter plate are interrupted. In age-unsynchronized populations of D. destructor, we observed reduced motility of worm populations treated with the halogenated derivatives i-19, i-20, and i-21 (Figures A, S2.1A, S2.2A and Table S2.1). […] The decreases in mean activity counts after 72 h of treatment at 100 μM were 85% and 97%, respectively.

In series [4] the test system is Heterodera schachtii second-stage juveniles (J2). Briefly: Motility on WMicrotracker ONE. It is filed as in vivo. The procedure: H. schachtii was maintained on mustard (Sinapsis alba cv. Albatros) roots grown in vitro on modified KNOP medium according to the previously published protocols. ,
as §1, §2

Series [5] has as its system Arabidopsis thaliana Col-0. Briefly: Germination rate and phytotoxicity. The note with it: for average fraction of germinated seeds: 5 DPS; for main root length / plant weight: 10 DPS. It is filed as in vivo. As to the method: Wild-type A. thaliana (Col-0 ecotype) seeds were sterilized with 70% EtOH with 0.1% Tween-20 solution (2 × 1 mL) for 10 min, rinsed with 96% EtOH (1 × 1 mL) for 10 min, and kept in the fridge (4 °C in the dark). Seeds were sown on a sterile 1/2 MS medium supplemented with 0.3% DMSO as a mock and test compounds at 5, 10, 50, and 100 μM concentrations in 0.3% DMSO. Plates were kept in long-day light conditions (22 °C/20 °C, 16 h light/8 h dark, 100 μmol m^–2 s^–1). After 5 days, the germination rate was evaluated. After an additional 5 days, primary root growth was measured with ImageJ software (https://imagej.nih.gov/ij/), and seedlings were weighted.

For series [6], the system named is C. elegans N2 wild-type. Description: Chitinase assay (reproductive capacity). It counts as in vivo, Caenorhabditis elegans. The note with it: Caenorhabditis elegans. As to the method:
(§3) The effect of compounds on C. elegans was evaluated using the Chitinase assay as we described previously.
After exposing L1 larvae to the compounds for 4 days, we observed the populations under a microscope and measured the Chitinase activity. The larvae produce the enzyme while hatching, and its activity is indicative of the reproductive capacity of the worms. Populations that fail to reproduce due to acute or reproductive toxicity or developmental abnormalities are detected.

Series [7] concerns C. elegans CB211 lev-1(e211) IV. Briefly: Chitinase assay (reproductive capacity). The note with it: Caenorhabditis elegans; levamisole-resistant strain. It counts as in vivo. As to the method:
(§4) C. elegans strains used in this study were N2 (wild-type), levamisole-resistant strains ZZ15 (lev-8(x15) X) and […] (lev-1(e211) IV), ivermectin-resistant strain DA1316 (avr-14(ad1305) I; avr-15(vu227) glc-1(pk54) V), mebendazole-resistant strain […] (ben-1(e1880) III), and three strains with mutations in succinate dehydrogenase, RP2699, RP2700, and RP2702. The worms were cultivated on Nematode Growth Medium agar plates seeded with Escherichia coli OP50 in 20 °C according to the standard cultivation protocols. Strains RP2699, RP2700, and RP2702 were generated by Prof. Peter Roy’s group. All other strains and bacteria were purchased from the Caenorhabditis Genetics Center (CGC, Minneapolis, MN).
as §3
(§5) Lastly, strain DA1316 has mutations in three genes encoding subunits of the glutamate-gated chloride channel and is highly resistant to avermectins.

The test system of series [8] is C. elegans DA1316 avr-14(ad1305) I; avr-15(vu227) glc-1(pk54) V. Briefly: Chitinase assay (reproductive capacity). It counts as in vivo. To be noted: Caenorhabditis elegans; ivermectin-resistant strain. As to the method: as §4, §3, §5
For series [9], the system named is C. elegans ZZ15 lev-8(x15) X. Briefly: Chitinase assay (reproductive capacity). It counts as in vivo. To be noted: Caenorhabditis elegans; levamisole-resistant strain. The procedure: as §4, §3, §5
Series [10] deals with C. elegans CB3474 ben-1(e1880) III. Briefly: Chitinase assay (reproductive capacity). It is filed as in vivo. To be noted: Caenorhabditis elegans; mebendazole-resistant strain. As to the method: as §4, §3, §5
The subject of series [11] is C. elegans N2. Description: Scoring of developmental rates, L1 exposed 5 days. On the set-up: key: 1 = dead/arrested at L1 … 5 = healthy, normal reproduction. The note with it: 1 µM (control). It counts as in vivo, Caenorhabditis elegans. From the text:
(§6) Dead or mostly immobile worms, arrested at the L1 stage, received a score of 1. Populations with severely delayed development were scored as 2. More developmentally advanced, but still obviously delayed worms were given the score of 3. Adult worms that produce a noticeably lower number of progeny received a score of 4. Healthy worms that reproduce normally (i.e., hundreds of eggs and larvae are present) were scored as 5 (see Figure C for representative images). In a typical, correctly prepared experiment, vehicle-treated populations should receive a score of 5, while worms treated with ivermectin (positive control) should receive a score of 1. […]

Series [12] has as its system C. elegans complex II mutant RP2699. Briefly: Scoring of developmental rates, L1 exposed 5 days. It counts as in vivo, Caenorhabditis elegans. To be noted: 1 µM (control).
Source text: as §6

In series [13] the test system is C. elegans complex II mutant RP2702. Briefly: Scoring of developmental rates, L1 exposed 5 days. It counts as in vivo, Caenorhabditis elegans. To be noted: 1 µM (control).
Source text: as §6

Series [14] concerns C. elegans complex II mutant RP2700. Description: Scoring of developmental rates, L1 exposed 5 days. It counts as in vivo, Caenorhabditis elegans. The note with it: 1 µM (control).
Source text: as §6

Setting [15] is: 10 µM group, initial (prior to the treatment).
[16] abbreviates: 50 µM group, initial (prior to the treatment).
[17] abbreviates: 100 µM group, initial (prior to the treatment).
Where [18] appears, read: 10 mM group, initial (prior to the treatment).

This note sets out measurements from article PMC12766724, “Synthesis, Anthelmintic Activity, and Mechanism of Action of 5‑Aryl‑1H‑indoles” (Journal of Agricultural and Food Chemistry, 2025).

What is called IC50 is the concentration that gives 50% inhibition. With `CC(C)Oc1cc(-c2ccc3[nH]ccc3c2)ccc1Cl` [i-27], the “Average viability (signal intensity relative to control)” value amounted to 0.92 ± 0.02 in series [1] (10 µM); 0.92 ± 0.03 in series [1] (20 µM); 0.89 ± 0.03 in series [1] (40 µM); 0.78 ± 0.12 in [2] (10 µM); 0.6 ± 0.19 in series [2] (20 µM); 0.48 ± 0.21 in series [2] (40 µM). Moreover, in series [2] (40 µM), the decrease in viability is reported as approximately 50%. Besides, the average activity counts was 242 in [3] (setting [15]); 235 in series [3] (10 µM, 48 h); 211 in [3] (10 µM, 72 h); 248 in series [3] (setting [16]); 227 in [3] (50 µM, 48 h); 223 in series [3] (50 µM, 72 h). Moreover, the average activity counts in [3] (setting [17]) worked out at 213; in series [3] (100 µM, 48 h), 207; in series [3] (100 µM, 72 h) it was 202; in series [4] (setting [15]), 169; in series [4] (10 µM, 48 h), 161; in series [4] (10 µM, 72 h), 167. In addition, the average activity counts in [4] (setting [16]) is given as 189; in [4] (50 µM, 48 h), 124; in [4] (50 µM, 72 h) it was 113; in [4] (setting [17]), 169; in [4] (100 µM, 48 h), 161; in series [4] (100 µM, 72 h) it was 111. Further, the “average fraction of germinated seeds” value in series [5] (5 µM) is on record as 0.94; in series [5] (10 µM) it was 0.98; in [5] (50 µM), 0.95. Further, the values for the main root length in series [5] (5 µM), in series [5] (10 µM) and in series [5] (50 µM) were 39.90 mm, 40.35 mm and 37.27 mm, respectively. The plant weight in [5] (5 µM) worked out at 33.97 mg; in series [5] (10 µM) it was 35.66 mg; in series [5] (50 µM) it was 30.34 mg. Further, the IC50 in [6] worked out at 9.75 ± 1.65 µM; in [7], 9.85 ± 0.33 µM; in [8] it was 10.79 ± 0.08 µM; in series [9], 8.83 ± 0.47 µM; in series [10] it was 7.48 ± 0.06 µM.

The compound `CC(C)Oc1ccc(-c2ccc3[nH]ccc3c2)cc1` [i-16] returned an IC50 in series [6] of 15.2 ± 0.89 µM.

In [6], `COc1ccc(-c2ccc3[nH]ccc3c2)cc1` [i-7] had a half-inhibitory concentration (IC50) of 15.8 ± 1.78 µM.

As to `[N-]=[N+]=[N-].[Na+]` [NaN3, reference compound], the average activity counts in series [3] (setting [18]) was 223; in series [3] (10 mM, 48 h), 7; in [3] (10 mM, 72 h), 2; in series [4] (setting [18]), 182; in series [4] (10 mM, 48 h), 2; in series [4] (10 mM, 72 h), 2.

Regarding `Oc1cccc(-c2ccc3[nH]ccc3c2)c1` [i-3], the “Average viability (signal intensity relative to control)” value in series [1] (10 µM) is listed as 1 ± 0.01; in [1] (20 µM), 0.97 ± 0; in [1] (40 µM), 0.89 ± 0; in series [2] (10 µM), 1.02 ± 0.06; in series [2] (20 µM), 1 ± 0.06; in [2] (40 µM), 0.93 ± 0.06.

In series [6], `Oc1cc(-c2ccc3[nH]ccc3c2)ccc1Cl` [i-24] registered an IC50 of 25 to 50 µM.

For the compound `CC[C@H](C)[C@H]1O[C@]2(CC[C@@H]1C)C[C@@H]1C[C@@H](C/C=C(\C)[C@@H](O[C@H]3C[C@H](OC)[C@@H](O[C@H]4C[C@H](OC)[C@@H](O)[C@H](C)O4)[C@H](C)O3)[C@@H](C)/C=C/C=C3\CO[C@@H]4[C@H](O)C(C)=C[C@@H](C(=O)O1)[C@]34O)O2` [ivermectin, reference compound], the “mean score (1-5)” value in series [11] came to 1; in [12], 1.333; in series [13], 1; in series [14], 1.
